# Test system: rotenone-mediated inhibition of complex 1
# Assay: Pig model of rotenone induced mitochondrial complex 1 dysfunction
# Assay type: in vivo, Yorkshire landrace hybrid pigs
# Conditions: rotenone infusion 7.1 mg/hr for 1.5 hours, below quantification
# Procedure: To study the effect of rotenone-mediated inhibition of complex 1, Yorkshire landrace hybrid pigs were anaesthetised and implanted with venous catheters for simultaneous infusion of rotenone and Compound 1 or vehicle (PBS). Rotenone (7.1 mg/hr) was infused during 1.5 hours. Compound 1 was infused at a constant rate of 2 mg/kg/min over a period of 2.5 hours. The control animal was infused with PBS. Blood samples were taken with 30 min intervals and plasma was separated by centrifugation. Microdialysates were collected by inserting a microdialysis probe into the striatum of the brain and analysed for lactate using an ISCUS instrument (MDialysis). At the end of infusion, the animal was euthanised and terminal blood and organ samples were collected. Plasma and tissue samples were stored frozen and later analysed for succinate in an LC/MS method using a Thermo Vanquish UPLC+Thermo Quantis triple quadrupole MS instrument, an Acquity UPLC HSS C18 (100×2.1 mm, 1.8 μm) column with guard filter and gradient elution; A=0.1% Formic acid, B=Acetonitrile. [13C]-labelled succinate was used as internal standard. Lactate data were expressed as percentage of the baseline value obtained before start of rotenone infusion.
compound,measurement,value
C=C(C)[C@H]1Cc2c(ccc3c2O[C@@H]2COc4cc(OC)c(OC)cc4[C@@H]2C3=O)O1 [Rotenone],tissue concentrations of succinate,< 2 µM

# — US11565998B2, “Succinate prodrug, compositions containing the succinate prodrug and uses thereof” (ABLIVA AB, priority 2019, dated 2023)
